Experimental findings from patent publication US20240150356A1, “Pyrimidine amide compounds and use thereof” (ALPHALA CO., LTD., priority 2019, published 2024) are described below.

The experiment deals with Hep3B cells (hepatocellular carcinoma cell line). The experiment is described as follows: In vitro MTS cell viability assay (NCI-60 methodology), Hep3B. The following applies: Homo sapiens, 48 h, Table 10, MTS, 2 days drug incubation, 50% reduction vs time zero, read-out: Hep3B LC50. It is filed as cell-based. An outline of the steps:
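Following NCI-60 method, MTS viability of Hep3B measured 24 h after plating (time zero) and after a further 2-day exposure to five concentrations (2-fold series). LC50 defined where [(Ti−Tz)/Tz]×100 = −50.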
By LC50 is commonly meant the concentration lethal to half of the exposed cells or organisms. Turning to `Cc1ccc(-c2nc(NC(=O)c3ccc([N+](=O)[O-])s3)c3cnn(C4CCCCC4)c3n2)s1` [Compound 10-7, N-(1-cyclohexyl-6-(5-methylthiophen-2-yl)-1H-pyrazolo[3,4-d]pyrimidin-4-yl)-5-nitrothiophene-2-carboxamide], the 50% lethal concentration (LC50) was found to be 1.53 µM. Regarding `O=C(Nc1nc(-c2ccc(Cl)s2)nc2c1cnn2C1CCCCC1)c1ccc([N+](=O)[O-])s1` [Compound 10-8, N-(6-(5-chlorothiophen-2-yl)-1-cyclohexyl-1H-pyrazolo[3,4-d]pyrimidin-4-yl)-5-nitrothiophene-2-carboxamide], the LC50 was 0.49 µM. Take `Cc1noc(C)c1-c1nc(NC(=O)c2ccc([N+](=O)[O-])s2)c2cnn(C3CCCCC3)c2n1` [Compound 10-9, N-(1-cyclohexyl-4-(3,5-dimethylisoxazol-4-yl)-1H-pyrazolo[3,4,d]pyrimidin-4-yl)-5-nitrothiophene-2-carboxamide]: the 50% lethal concentration (LC50) is 1.07 µM. Consider `O=C(Nc1nc(-c2cccnc2)nc2c1cnn2C1CCCCC1)c1ccc([N+](=O)[O-])s1` [Compound 10-10, N-(1-cyclohexyl-6-(pyridin-3-yl)-1H-pyrazolo[3,4,d]pyrimidin-4-yl)-5-nitrothiophene-2-carboxamide], for which the median lethal concentration (LC50) was 0.99 µM. The same measure for `O=C(Nc1nc(-c2ccccc2F)nc2c1cnn2C1CCCCC1)c1ccc([N+](=O)[O-])s1` [Compound 10-11, N-(1-cyclohexyl-6-(2-fluorophenyl)-1H-pyrazolo[3,4-d]pyrimidin-4-yl)-5-nitrothiophene-2-carboxamide]: 1.94 µM; for `O=C(Nc1nc(-c2cccc(F)c2)nc2c1cnn2C1CCCCC1)c1ccc([N+](=O)[O-])s1` [Compound 10-12, N-(1-cyclohexyl-6-(3-fluorophenyl)-1H-pyrazolo[3,4-d]pyrimidin-4-yl)-5-nitrothiophene-2-carboxamide]: 0.95 µM. For the compound `O=C(Nc1nc(-c2ccnc(F)c2)nc2c1cnn2C1CCCCC1)c1ccc([N+](=O)[O-])s1` [Compound 10-15, N-(1-cyclohexyl-6-(2-fluoropyridin-4-yl)-1H-pyrazolo[3,4-d]pyrimidin-4-yl)-5-nitrothiophene-2-carboxamide], the LC50 stood at 1.17 µM. For the compound `O=C(Nc1nc(-c2cccc(Cl)c2)nc2c1cnn2C1CCCCC1)c1ccc([N+](=O)[O-])s1` [Compound 10-16, N-(6-(3-chlorophenyl)-1-cyclohexyl-1H-pyrazolo[3,4-d]pyrimidin-4-yl)-5-nitrothiophene-2-carboxamide], the LC50 amounted to 0.61 µM.

Regarding `O=C(Nc1nc(-c2ccc(Cl)cc2)nc2c1cnn2C1CCCCC1)c1ccc([N+](=O)[O-])s1` [Compound 10-17, N-(6-(4-chlorophenyl)-1-cyclohexyl-1H-pyrazolo[3,4-d]pyrimidin-4-yl)-5-nitrothiophene-2-carboxamide], the LC50 was determined as 0.53 µM. On to `Cc1ccc(-c2nc(NC(=O)c3ccc([N+](=O)[O-])s3)c3cnn(C4CCCCC4)c3n2)cn1` [Compound 10-19], for which the median lethal concentration (LC50) came to 1.13 µM.

As for `N#Cc1ccc(-c2nc(NC(=O)c3ccc([N+](=O)[O-])s3)c3cnn(C4CCCCC4)c3n2)cc1` [Compound 10-20, N-(6-(4-cyanophenyl)-1-cyclohexyl-1H-pyrazolo[3,4-d]pyrimidin-4-yl)-5-nitrothiophene-2-carboxamide], the LC50 is 1.2 µM. `COc1ccc(-c2nc(NC(=O)c3ccc([N+](=O)[O-])s3)c3cnn(C4CCCCC4)c3n2)cn1` [Compound 10-21, N-(1-cyclohexyl-6-(6-methoxypyridin-3-yl)-1H-pyrazolo[3,4-d]pyrimidin-4-yl)-5-nitrothiophene-2-carboxamide]: the median lethal concentration (LC50) was 1.12 µM. As to `COc1cncc(-c2nc(NC(=O)c3ccc([N+](=O)[O-])s3)c3cnn(C4CCCCC4)c3n2)c1` [Compound 10-22], the 50% lethal concentration (LC50) amounted to 1.16 µM. As for `O=C(Nc1nc(-c2ccc(C(F)(F)F)cc2)nc2c1cnn2C1CCCCC1)c1ccc([N+](=O)[O-])s1` [Compound 10-24, N-(1-cyclohexyl-6-(4-(trifluoromethyl)phenyl)-1H-pyrazolo[3,4-d]pyrimidin-4-yl)-5-nitrothiophene-2-carboxamide], the 50% lethal concentration (LC50) was 0.64 µM. To `O=C(Nc1nc(-c2ccc(OC(F)(F)F)cc2)nc2c1cnn2C1CCCCC1)c1ccc([N+](=O)[O-])s1` [Compound 10-26, N-(1-cyclohexyl-6-(4-(trifluoromethoxy)phenyl)-1H-pyrazolo[3,4-d]pyrimidin-4-yl)-5-nitrothiophene-2-carboxamide] belongs 0.68 µM; to `O=Cc1ccc(-c2nc(NC(=O)c3ccc([N+](=O)[O-])s3)c3cnn(C4CCCCC4)c3n2)cc1` [Compound 10-27, N-(1-cyclohexyl-6-(4-formylphenyl)-1H-pyrazolo[3,4-d]pyrimidin-4-yl)-5-nitrothiophene-2-carboxamide], 0.84 µM; to `CC(=O)c1ccc(-c2nc(NC(=O)c3ccc([N+](=O)[O-])s3)c3cnn(C4CCCCC4)c3n2)cc1` [Compound 10-28, N-(6-(4-acetylphenyl)-1-cyclohexyl-1H-pyrazolo[3,4-d]pyrimidin-4-yl)-5-nitrothiophene-2-carboxamide], 1.93 µM. Turning to `CN(C)Cc1ccc(-c2nc(NC(=O)c3ccc([N+](=O)[O-])s3)c3cnn(C4CCCCC4)c3n2)cc1` [Compound 10-29, N-(1-cyclohexyl-6-(4-((dimethylamino)methyl)phenyl)-1H-pyrazolo[3,4-d]pyrimidin-4-yl)-5-nitrothiophene-2-carboxamide], the LC50 came out at 1.51 µM.

Regarding `COCc1ccc(-c2nc(NC(=O)c3ccc([N+](=O)[O-])s3)c3cnn(C4CCCCC4)c3n2)cc1` [Compound 10-30, N-(1-cyclohexyl-6-(4-(methoxymethyl)phenyl)-1H-pyrazolo[3,4-d]pyrimidin-4-yl)-5-nitrothiophene-2-carboxamide], the median lethal concentration (LC50) stood at 0.84 µM. On to `COC(=O)c1cccc(-c2nc(NC(=O)c3ccc([N+](=O)[O-])s3)c3cnn(C4CCCCC4)c3n2)c1` [Compound 10-31, methyl 3-(1-cyclohexyl-4-(5-nitrothiophene-2-carboxamido)-1H-pyrazolo[3,4-d]pyrimidin-6-yl)benzoate], for which the LC50 was 0.58 µM. As for `CCOC(=O)c1ccc(-c2nc(NC(=O)c3ccc([N+](=O)[O-])s3)c3cnn(C4CCCCC4)c3n2)cc1` [Compound 10-33, ethyl 4-(1-cyclohexyl-4-(5-nitrothiophene-2-carboxamido)-1H-pyrazolo[3,4-d]pyrimidin-6-yl)benzoate], the LC50 is 0.54 µM. To `CS(=O)(=O)c1ccc(-c2nc(NC(=O)c3ccc([N+](=O)[O-])s3)c3cnn(C4CCCCC4)c3n2)cc1` [Compound 10-34, N-(1-cyclohexyl-6-(4-(methylsulfonyl)phenyl)-1H-pyrazolo[3,4-d]pyrimidin-4-yl)-5-nitrothiophene-2-carboxamide] belongs 0.93 µM. The same measure for `CC(C)(C)c1ccc(-c2nc(NC(=O)c3ccc([N+](=O)[O-])s3)c3cnn(C4CCCCC4)c3n2)cc1` [Compound 10-35, N-(6-(4-(tert-butyl)phenyl)-1-cyclohexyl-1H-pyrazolo[3,4,d]pyrimidin-4-yl)-5-nitrothiophene-2-carboxamide]: 1.33 µM. In the case of `O=C(Nc1nc(-c2ccc3c(c2)OCO3)nc2c1cnn2C1CCCCC1)c1ccc([N+](=O)[O-])s1` [Compound 10-36, N-(6-(benzo[d][1,3]dioxol-5-yl)-1-cyclohexyl-1H-pyrazolo[3,4-d]pyrimidin-4-yl)-5-nitrothiophene-2-carboxamide], the 50% lethal concentration (LC50) was found to be 2.12 µM.
